US12509453B2, “BRM/BRG1 inhibitors and uses thereof” (Foghorn Therapeutics Inc., priority 2019, dated 2025)

Experiments:
BRM = target: T1, BRM (Homo sapiens, UniProt P51531); experiment: ATPase catalytic activity assay (ADP-Glo), BRM; assay type: biochemical; conditions: 30 nM BRM, 400 μM ATP; for IC50: 20 nM salmon sperm DNA, read-out: BRM IP50 (μM)*
T1 construct: made in house; host or cells: High Five insect cells
Experimental: (§1) The ATPase catalytic activity of BRM or BRG-1 was measured by the in vitro biochemical assay using ADP-Glo™ (Promega, V9102). The ADP-Glo™ kinase assay is performed in two steps once the reaction is complete. The first step is to deplete any unconsumed ATP in the reaction. The second step is to convert the reaction product ADP to ATP, which will be utilized by the luciferase to generate luminesce and be detected by a luminescence reader, such as Envision.
(§2) The assay reaction mixture (10 μL) contains 30 nM of BRM or BRG-1, 20 nM salmon sperm DNA (from Invitrogen, UltraPure™ Salmon Sperm DNA Solution, cat #15632011), and 400 μM of ATP in the ATPase assay buffer, which comprises of 20 mM Tris, pH 8, 20 mM MgCl2, 50 mM NaCl, 0.1% Tween-20, and 1 mM fresh DTT (Pierce™ DTT (Dithiothreitol), cat #20290). The reaction is initiated by the addition of the 2.5 μL ATPase solution to 2.5 μL ATP/DNA solution on low volume white Proxiplate-384 plus plate (PerkinElmer,cat #6008280) and incubates at room temperature for 1 hour. Then following addition of 5 μL of ADP-Glo™ Reagent provided in the kit, the reaction incubates at room temperature for 40 minutes. Then 10 μL of Kinase Detection Reagent provided in the kit is added to convert ADP to ATP, and the reaction incubates at room temperature for 60 minutes. Finally, luminescence measurement is collected with a plate-reading luminometer, such as Envision.
as §1, with “The” for “The ATPase catalytic activity of BRM or BRG-1 was measured by the in vitro biochemical assay using ADP-Glo™ (Promega, V9102). The”
as §2, with “BRG1,” for “BRG-1,”

BRG-1 = target: T2, BRG-1 (Homo sapiens, UniProt P51532); experiment: ATPase catalytic activity assay (ADP-Glo), BRG-1; assay type: biochemical; conditions: 30 nM BRG-1, 400 μM ATP; for IC50: 20 nM salmon sperm DNA, read-out: BRG1 IP50 (μM)*; for Emax: read-out: BRG1 Max % Inhibition
T2 construct: made in house; host or cells: High Five insect cells
Experimental: as §1, §2
as §1, with “The” for “The ATPase catalytic activity of BRM or BRG-1 was measured by the in vitro biochemical assay using ADP-Glo™ (Promega, V9102). The”
as §2, with “BRG1,” for “BRG-1,”

T1 sequence (P51531 whole entry): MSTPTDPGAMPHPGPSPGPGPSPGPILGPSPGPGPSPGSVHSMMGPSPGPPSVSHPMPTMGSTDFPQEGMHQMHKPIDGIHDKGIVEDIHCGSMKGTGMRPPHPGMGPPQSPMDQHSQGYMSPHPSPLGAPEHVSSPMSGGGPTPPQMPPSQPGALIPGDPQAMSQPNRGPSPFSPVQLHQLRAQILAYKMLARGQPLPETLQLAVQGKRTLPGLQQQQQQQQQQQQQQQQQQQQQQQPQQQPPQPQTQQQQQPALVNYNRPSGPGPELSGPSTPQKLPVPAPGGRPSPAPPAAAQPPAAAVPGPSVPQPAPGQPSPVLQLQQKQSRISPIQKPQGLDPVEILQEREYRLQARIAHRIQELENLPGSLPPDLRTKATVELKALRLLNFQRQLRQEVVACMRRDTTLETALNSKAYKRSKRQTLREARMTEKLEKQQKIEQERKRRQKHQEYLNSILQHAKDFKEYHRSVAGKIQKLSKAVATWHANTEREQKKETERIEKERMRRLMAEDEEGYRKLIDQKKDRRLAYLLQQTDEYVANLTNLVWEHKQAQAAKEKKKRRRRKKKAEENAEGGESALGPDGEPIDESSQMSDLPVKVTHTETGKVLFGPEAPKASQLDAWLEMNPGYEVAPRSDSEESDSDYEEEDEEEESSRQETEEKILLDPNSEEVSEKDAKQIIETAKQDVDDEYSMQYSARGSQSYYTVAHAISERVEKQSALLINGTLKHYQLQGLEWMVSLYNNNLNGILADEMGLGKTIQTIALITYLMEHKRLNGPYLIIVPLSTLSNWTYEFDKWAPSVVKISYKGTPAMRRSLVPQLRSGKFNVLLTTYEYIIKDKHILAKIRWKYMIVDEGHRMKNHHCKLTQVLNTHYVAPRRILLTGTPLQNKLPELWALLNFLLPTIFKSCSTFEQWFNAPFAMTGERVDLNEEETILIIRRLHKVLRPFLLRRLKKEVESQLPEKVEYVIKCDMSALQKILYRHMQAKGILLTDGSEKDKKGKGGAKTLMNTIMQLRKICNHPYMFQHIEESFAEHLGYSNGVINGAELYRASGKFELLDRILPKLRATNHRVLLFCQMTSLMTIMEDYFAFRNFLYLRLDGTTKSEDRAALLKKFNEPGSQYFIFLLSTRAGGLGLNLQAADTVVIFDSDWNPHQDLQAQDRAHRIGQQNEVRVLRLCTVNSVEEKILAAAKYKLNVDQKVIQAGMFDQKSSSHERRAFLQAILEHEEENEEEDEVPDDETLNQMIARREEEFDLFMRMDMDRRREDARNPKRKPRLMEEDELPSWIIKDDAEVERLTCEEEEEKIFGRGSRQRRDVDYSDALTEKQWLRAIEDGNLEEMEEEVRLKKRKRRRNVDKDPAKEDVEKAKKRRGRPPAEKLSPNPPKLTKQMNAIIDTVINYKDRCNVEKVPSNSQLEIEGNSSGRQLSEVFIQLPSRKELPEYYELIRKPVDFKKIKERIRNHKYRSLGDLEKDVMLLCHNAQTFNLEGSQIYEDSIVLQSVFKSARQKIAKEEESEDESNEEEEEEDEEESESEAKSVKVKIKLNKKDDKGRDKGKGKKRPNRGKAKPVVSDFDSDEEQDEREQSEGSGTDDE
T2 sequence (P51532 whole entry): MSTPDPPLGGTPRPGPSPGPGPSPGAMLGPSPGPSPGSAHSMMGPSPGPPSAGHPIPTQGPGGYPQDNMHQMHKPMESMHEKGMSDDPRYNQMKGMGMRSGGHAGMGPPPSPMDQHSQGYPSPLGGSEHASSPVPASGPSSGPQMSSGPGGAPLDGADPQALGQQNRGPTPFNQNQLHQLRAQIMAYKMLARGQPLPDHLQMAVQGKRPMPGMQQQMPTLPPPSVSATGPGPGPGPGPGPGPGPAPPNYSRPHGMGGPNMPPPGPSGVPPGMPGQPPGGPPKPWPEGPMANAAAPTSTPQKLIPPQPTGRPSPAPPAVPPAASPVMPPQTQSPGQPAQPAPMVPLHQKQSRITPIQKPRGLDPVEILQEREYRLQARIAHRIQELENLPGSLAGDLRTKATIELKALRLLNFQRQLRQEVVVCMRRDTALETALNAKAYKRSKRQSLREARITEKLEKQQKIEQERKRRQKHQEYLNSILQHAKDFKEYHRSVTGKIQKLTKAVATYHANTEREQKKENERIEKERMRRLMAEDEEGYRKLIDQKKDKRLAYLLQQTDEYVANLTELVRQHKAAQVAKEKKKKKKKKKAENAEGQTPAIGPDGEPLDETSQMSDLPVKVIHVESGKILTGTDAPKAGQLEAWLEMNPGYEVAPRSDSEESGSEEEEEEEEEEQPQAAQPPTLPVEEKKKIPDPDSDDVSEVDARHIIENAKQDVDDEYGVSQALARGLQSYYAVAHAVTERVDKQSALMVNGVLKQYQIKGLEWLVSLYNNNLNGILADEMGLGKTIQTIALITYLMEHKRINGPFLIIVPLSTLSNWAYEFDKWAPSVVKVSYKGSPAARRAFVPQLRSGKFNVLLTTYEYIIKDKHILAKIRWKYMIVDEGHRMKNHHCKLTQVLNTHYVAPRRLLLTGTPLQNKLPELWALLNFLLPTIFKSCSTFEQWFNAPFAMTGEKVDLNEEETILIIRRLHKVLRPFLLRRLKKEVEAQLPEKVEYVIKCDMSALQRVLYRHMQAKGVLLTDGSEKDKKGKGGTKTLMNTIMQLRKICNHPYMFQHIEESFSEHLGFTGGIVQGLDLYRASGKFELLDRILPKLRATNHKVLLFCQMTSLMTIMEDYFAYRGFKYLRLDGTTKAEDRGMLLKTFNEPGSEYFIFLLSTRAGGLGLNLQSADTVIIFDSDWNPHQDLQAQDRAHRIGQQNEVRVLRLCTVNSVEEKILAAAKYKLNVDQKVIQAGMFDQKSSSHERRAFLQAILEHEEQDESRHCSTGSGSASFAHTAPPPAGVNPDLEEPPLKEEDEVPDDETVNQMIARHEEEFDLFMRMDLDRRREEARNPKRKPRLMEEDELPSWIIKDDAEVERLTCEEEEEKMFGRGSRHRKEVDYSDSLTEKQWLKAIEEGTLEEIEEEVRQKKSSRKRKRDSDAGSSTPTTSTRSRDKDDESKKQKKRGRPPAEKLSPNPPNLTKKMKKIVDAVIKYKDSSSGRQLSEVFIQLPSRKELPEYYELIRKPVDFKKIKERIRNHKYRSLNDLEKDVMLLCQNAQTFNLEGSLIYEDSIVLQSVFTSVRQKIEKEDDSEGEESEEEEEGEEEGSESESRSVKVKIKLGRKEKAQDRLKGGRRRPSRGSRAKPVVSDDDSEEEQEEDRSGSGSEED

Row | SMILES | BRM Max % Inhibition (BRM) [%] | IC50 (BRM) [µM] | IC50 (BRG-1) [µM] | Emax (BRG-1) [%]
1 | CS(=O)(=O)n1cc(C(=O)NCC(=O)Nc2nc(-c3cccc(N4CCC(O)CC4)c3)cs2)c2ccccc21 [Compound 39, N-(2-((4-(3-(4-hydroxypiperidin-1-yl)phenyl)thiazol-2-yl)amino)-2-oxoethyl)-1-(methylsulfonyl)-1H-indole-3-carboxamide] | >80 | 0.1 to 1 | 1 to 5 | < 30
2 | Cc1nccc(-c2cccc(-c3csc(NC(=O)CNC(=O)c4cn(S(C)(=O)=O)c5c4CCCC5)n3)n2)n1 [Compound 18, N-(2-((4-(6-(2-methylpyrimidin-4-yl)pyridin-2-yl)thiazol-2-yl)amino)-2-oxoethyl)-1-(methylsulfonyl)-4,5,6,7-tetrahydro-1H-indole-3-carboxamide] | >70 | 0.1 to 1 | > 5 | < 30
3 | Cc1cc(-c2cccc(-c3csc(NC(=O)CNC(=O)c4cn(S(C)(=O)=O)c5ccccc45)n3)n2)ncn1 [Compound 23, N-(2-((4-(6-(6-methylpyrimidin-4-yl)pyridin-2-yl)thiazol-2-yl)amino)-2-oxoethyl)-1-(methylsulfonyl)-1H-indole-3-carboxamide] | >90 | 0.1 to 1 | 1 to 5 | > 40
4 | CC(C)S(=O)(=O)n1cc(C(=O)NCC(=O)Nc2nc(-c3cc(F)cc(N4C[C@@H](C)O[C@@H](C)C4)c3)cs2)c2ccccc21 [Compound 21, N-(2-((4-(3-((cis)-2,6-dimethylmorpholino)-5-fluorophenyl)thiazol-2-yl)amino)-2-oxoethyl)-1-(isopropylsulfonyl)-1H-indole-3-carboxamide] | >90 | 0.1 to 1 | > 5 | < 30
5 | Cc1cc(-c2cccc(-c3csc(NC(=O)CNC(=O)c4cn(S(=O)(=O)C(C)C)c(C)c4C)n3)c2)ccn1 [Compound 13, 1-(isopropylsulfonyl)-4,5-dimethyl-N-(2-((4-(3-(2-methylpyridin-4-yl)phenyl)thiazol-2-yl)amino)-2-oxoethyl)-1H-pyrrole-3-carboxamide] | >95 | 0.1 to 1 | 1 to 5 | > 80
6 | CC(C)S(=O)(=O)n1cc(C(=O)NCC(=O)Nc2nc(-c3cccc(N4C[C@@H](C)O[C@@H](C)C4)c3)cs2)cc1Cl [Compound 36] | >90 | 0.1 to 1 | 1 to 5 | > 60
7 | Cc1cc(-c2cccc(-c3csc(NC(=O)CNC(=O)c4cc(C5CC5)n(S(C)(=O)=O)c4)n3)c2)cc(C)n1 [Compound 19, 5-cyclopropyl-N-(2-((4-(3-(2,6-dimethylpyridin-4-yl)phenyl)thiazol-2-yl)amino)-2-oxoethyl)-1-(methylsulfonyl)-1H-pyrrole-3-carboxamide] | >95 | 0.1 to 1 | 0.1 to 1 | > 80
8 | Cc1nccc(-c2cccc(-c3csc(NC(=O)CNC(=O)c4cn(S(C)(=O)=O)c5ccccc45)n3)n2)n1 [Compound 22, N-(2-((4-(6-(2-methylpyrimidin-4-yl)pyridin-2-yl)thiazol-2-yl)amino)-2-oxoethyl)-1-(methylsulfonyl)-1H-indole-3-carboxamide] | >80 | 0.1 to 1 | 1 to 5 | > 40
9 | CC(C)S(=O)(=O)n1cc(C(=O)NCC(=O)Nc2nc(-c3cccc(-c4ccncc4)c3)cs2)c2ccccc21 [Compound 4, 1-(isopropylsulfonyl)-N-(2-oxo-2-((4-(3-(pyridin-4-yl)phenyl)thiazol-2-yl)amino)ethyl)-1H-indole-3-carboxamide] | >60 | 0.1 to 1 | > 5 | –

Results, then the compound that gave them:

Row | BRM Max % Inhibition (BRM) [%] | IC50 (BRM) [µM] | IC50 (BRG-1) [µM] | Emax (BRG-1) [%] | SMILES
10 | >90 | 0.1 to 1 | 1 to 5 | > 40 | C[C@@H]1CN(c2cccc(-c3csc(NC(=O)CNC(=O)c4cn(S(C)(=O)=O)c5c4CCCC5)n3)c2)C[C@H](C)O1 [Compound 28, N-(2-((4-(3-((cis)-2,6-dimethylmorpholino)phenyl)thiazol-2-yl)amino)-2-oxoethyl)-1-(methylsulfonyl)-4,5,6,7-tetrahydro-1H-indole-3-carboxamide]
11 | >95 | < 0.1 | 0.1 to 1 | > 90 | Cc1c(C(=O)NCC(=O)Nc2nc(-c3cccc(N4C[C@@H](C)O[C@@H](C)C4)c3)cs2)cn(S(C)(=O)=O)c1C [Compound 15]
12 | – | 0.1 to 1 | 0.1 to 1 | – | Cc1c(C(=O)NCC(=O)Nc2nc(-c3cccc(N4C[C@@H](C)O[C@@H](C)C4)c3)cs2)cnn1C(C)(C)C [Compound 42, 1-(tert-butyl)-N-(2-((4-(3-((2R,6S)-2,6-dimethylmorpholino)phenyl)thiazol-2-yl)amino)-2-oxoethyl)-5-methyl-1H-pyrazole-4-carboxamide]
13 | >95 | 0.1 to 1 | 1 to 5 | > 70 | Cc1cc(C(=O)NCC(=O)Nc2nc(-c3cccc(N4C[C@@H](C)O[C@@H](C)C4)n3)cs2)cn1S(=O)(=O)C(C)C [Compound 38, N-(2-((4-(6-((cis)-2,6-dimethylmorpholino)pyridin-2-yl)thiazol-2-yl)amino)-2-oxoethyl)-1-(isopropylsulfonyl)-5-methyl-1H-pyrrole-3-carboxamide]
14 | >95 | < 0.1 | < 0.1 | > 95 | Cc1nccc(-c2cccc(-c3csc(NC(=O)CNC(=O)c4cc(C)n(S(=O)(=O)C(C)C)c4)n3)c2)n1 [Compound 16]
15 | >60 | < 0.1 | > 5 | < 30 | CS(=O)(=O)n1cc(C(=O)NCC(=O)Nc2nc(-c3cccc(-c4ccncc4)c3)cs2)c2c1CCCC2 [Compound 5, 1-(methylsulfonyl)-N-(2-oxo-2-((4-(3-(pyridin-4-yl)phenyl)thiazol-2-yl)amino)ethyl)-4,5,6,7-tetrahydro-1 H-indole-3-carboxamide]
16 | >95 | < 0.1 | 0.1 to 1 | > 80 | Cc1cc(-c2cccc(-c3csc(NC(=O)CNC(=O)c4cn(S(=O)(=O)C(C)C)c(C)c4C)n3)c2)cc(C)n1 [Compound 12, N-(2-((4-(3-(2,6-dimethylpyridin-4-yl)phenyl)thiazol-2-yl)amino)-2-oxoethyl)-1-(isopropylsulfonyl)-4,5-dimethyl-1H-pyrrole-3-carboxamide]
17 | – | < 0.1 | < 0.1 | – | CNC(=O)CN(C)c1cc(-c2cccc(-c3csc(NC(=O)CNC(=O)c4cc(C)n(S(C)(=O)=O)c4)n3)c2)ccn1 [Compound 46, 5-methyl-N-(2-((4-(3-(2-(methyl(2-(methylamino)-2-oxoethyl)amino)pyridin-4-yl)phenyl)thiazol-2-yl)amino)-2-oxoethyl)-1-(methylsulfonyl)-1H-pyrrole-3-carboxamide]
18 | >95 | < 0.1 | 0.1 to 1 | > 90 | Cc1cc(-c2cccc(-c3csc(NC(=O)CNC(=O)c4cn(S(C)(=O)=O)c5ccccc45)n3)c2)cc(C)n1 [Compound 33, N-(2-((4-(3-(2,6-dimethylpyridin-4-yl)phenyl)thiazol-2-yl)amino)-2-oxoethyl)-1-(methylsulfonyl)-1H-indole-3-carboxamide]
